Source: patent publication US11370804B2, “Complex of gadolinium and a chelating ligand derived from a diastereoisomerically enriched PCTA and preparation and purification process” (GUERBET, priority 2020, dated 2022)

Columns and labels:
[1] = decomplexation kinetics (kinetic inertia) in acidic aqueous solution, pH 1.2, 37° C.; format: physicochemical; details: same conditions (pH 1.2, 37° C.), comparative
Method: Besides, iso4 is the group of isomers which has the best kinetic inertia (also known as kinetic stability) among the four groups isolated by the inventors. Specifically, the inventors evaluated the kinetic inertia of the four groups of isomers by studying their decomplexation kinetics in acidic aqueous solution (pH=1.2), at 37° C. The half-life time values (T1/2) which were determined for each of the groups of isomers are indicated in table 1 below, the half-life time corresponding to the time after which 50% of the amount of complex initially present has been dissociated, according to the following decomplexation reaction (equation 2): […]

[2] = as described in WO 2014/174120 / for comparative purposes; cited from earlier work

| SMILES | kinetic inertia [1] | log (Ktherm), stability constant [2] | kinetic inertia (dissociation, in words) [1] |
| --- | --- | --- | --- |
| O=C([O-])CN1CCN(CC(=O)[O-])CCN([C@H](CO)[C@H](O)CO)CCN(CC(=O)[O-])CC1.[Gd+3] (racemic) [gadobutrol] | 18 h | – | – |
| O=C([O-])CN1CCN(CC(=O)[O-])CCN(CC(=O)O)CCN(CC(=O)[O-])CC1.[Gd+3] [DOTA-Gd, gadolinium complex of 1,4,7,10-tetraazacyclododecane-N,N′,N″,N′″-tetraacetic acid] | 96 h | 25.6 | – |
| CNC(=O)CN(CCN(CCN(CC(=O)[O-])CC(=O)NC)CC(=O)[O-])CC(=O)[O-].[Gd+3] [gadodiamide] | – | – | dissociate instantaneously |
| O=C([O-])CN(CCN(CC(=O)[O-])CC(=O)O)CCN(CC(=O)[O-])CC(=O)O.[Gd+3] [gadopentetate] | – | – | dissociate instantaneously |
